In EP3839043A1, “SCREENING METHODS FOR COMPOUNDS MODULATING POLYAMINE TRANSPORT” (Katholieke Universiteit Leuven, priority 2019, dated 2021):
Structures can show the parent of a compound that is named as a salt.

What was measured:
[1] = biological target: T1, Microsomal ATP13A2 (Homo sapiens, UniProt Q9NQ11); assay: ATPase assay (ADP-Glo Max), solubilized microsomes of SH-SY5Y cells overexpressing ATP13A2 WT; assay type: biochemical; details: for ATPase activity of ATP13A2 WT, screen for candidate substrates: 100 nM CaCl2, MnCl2, ZnCl2 or FeCl3, 100 µM SPD or SPM; for ATPase activity of ATP13A2, dose-response: indicated doses, microsomes 5 µg
T1 construct: expressed in transfected cells; host or cells: SH-SY5Y human neuroblastoma cells, lentiviral transduction; microsomes solubilised with DDM
T1 sequence (Q9NQ11 1-1175 isoform Q9NQ11-3): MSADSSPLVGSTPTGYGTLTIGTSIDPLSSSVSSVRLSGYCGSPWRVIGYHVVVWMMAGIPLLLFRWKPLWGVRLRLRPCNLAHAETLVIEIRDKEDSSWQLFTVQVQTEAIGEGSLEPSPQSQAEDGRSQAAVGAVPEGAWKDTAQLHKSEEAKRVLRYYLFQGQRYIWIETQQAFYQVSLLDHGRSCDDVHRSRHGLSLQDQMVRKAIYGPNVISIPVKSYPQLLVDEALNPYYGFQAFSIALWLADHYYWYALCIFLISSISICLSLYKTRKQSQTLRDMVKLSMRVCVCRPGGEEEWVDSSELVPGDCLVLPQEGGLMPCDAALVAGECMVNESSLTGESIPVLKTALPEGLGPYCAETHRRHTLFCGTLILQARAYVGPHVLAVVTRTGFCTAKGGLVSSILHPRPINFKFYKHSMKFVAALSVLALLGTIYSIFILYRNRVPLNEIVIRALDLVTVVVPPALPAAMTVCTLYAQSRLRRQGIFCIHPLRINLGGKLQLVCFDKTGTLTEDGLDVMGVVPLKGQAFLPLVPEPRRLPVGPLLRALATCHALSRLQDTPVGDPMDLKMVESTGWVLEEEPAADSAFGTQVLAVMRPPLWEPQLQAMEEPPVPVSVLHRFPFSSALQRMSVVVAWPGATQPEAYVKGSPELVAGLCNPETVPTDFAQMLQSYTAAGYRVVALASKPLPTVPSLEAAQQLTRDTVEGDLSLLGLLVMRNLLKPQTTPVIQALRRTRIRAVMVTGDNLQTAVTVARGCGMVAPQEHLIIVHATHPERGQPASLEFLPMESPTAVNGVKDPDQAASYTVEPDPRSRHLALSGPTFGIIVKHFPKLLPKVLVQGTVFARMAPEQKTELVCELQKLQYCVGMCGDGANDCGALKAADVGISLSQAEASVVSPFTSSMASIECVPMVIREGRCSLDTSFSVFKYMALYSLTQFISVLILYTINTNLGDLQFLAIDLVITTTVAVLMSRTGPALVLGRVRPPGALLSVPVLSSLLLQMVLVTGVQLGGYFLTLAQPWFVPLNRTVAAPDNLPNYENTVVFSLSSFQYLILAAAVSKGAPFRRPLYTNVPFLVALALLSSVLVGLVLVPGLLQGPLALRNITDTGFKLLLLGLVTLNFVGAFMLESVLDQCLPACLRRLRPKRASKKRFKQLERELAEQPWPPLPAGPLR
Experimental: Membrane fractionation - Transduced SH-SY5Y cells were seeded in […] at a density of 6 x 10^6 cells per plate. 24 h later, the cells were harvested following trypsinization and brief centrifugation (300 x g, 5 min). Subcellular fractionation was performed by differential centrifugation. The microsomal protein concentration was measured using the bicinchoninic acid assay (Thermo Fischer Scientific, Pierce) according to the manufacturer's instructions.
ATPase assay - The ATPase activity of ATP13A2 was assessed using a commercially available luminescence assay (ADP-Glo Max assay, Promega) that monitors the production of ADP via luciferase activity. The reactions were performed for 30 min (37°C) in a final volume of 25 µl. […] The assay was started by the addition of 5 mM ATP and was terminated by adding 25 µl of ADP-Glo Reagent. The 96-well plate was then incubated for 40 min at room temperature, followed by the addition of 50 µl of ADP-Glo Max Detection Reagent. After 40 min, luminescence was detected using a FlexStation 3.0 system (Molecular Devices). Dose-response curves and n/Km/Vmax values were calculated using GraphPad Prism Software (GraphPad Software Inc.).

[2] = biological target: T2, Purified ATP13A2 (Homo sapiens, UniProt Q9NQ11); assay: ATPase assay (ADP-Glo Max), purified ATP13A2 from yeast expression system; assay type: biochemical; design: we obtained >95% pure, full length and solubilized ATP13A2; biotin acceptor domain (BAD) tag behind a thrombin cleavage site (C, cleaved yes); made in house; host or cells: S. cerevisiae W303-1B/Gal4-ΔPep4, pYeDP60 vector; details: for lipid concentration of maximal effect on ATPase activity / ATP13A2 activity, effect of regulatory lipids: purified ATP13A2; for lipid concentration of maximal effect on ATPase activity: 2 mM SPM; for ATP13A2 activity, effect of regulatory lipids: only in the presence of SPM
T2 sequence (Q9NQ11 1-1175 isoform Q9NQ11-3): T1 sequence (Q9NQ11 1-1175 isoform Q9NQ11-3)
Experimental: ATPase assay - The ATPase activity of ATP13A2 was assessed using a commercially available luminescence assay (ADP-Glo Max assay, Promega) that monitors the production of ADP via luciferase activity. The reactions were performed for 30 min (37°C) in a final volume of 25 µl. The assay reaction mixture contained 50 mM MOPS-KOH (pH 7), 100 mM KCI, 11 mM MgCl2, 1 mM DTT, 195 µM DDM, various concentrations of the indicated compound, and either microsomes (5 µg) harvested from SH-SY5Y cells overexpressing ATP13A2 (WT or mutants) or purified ATP13A2 (0.5 µg). When purified ATP13A2 was used, we included 125 µM PA, 125 µM PI(3,5)P2 and 19.5 µM DDM in the reaction buffer. The assay was started by the addition of 5 mM ATP and was terminated by adding 25 µl of ADP-Glo Reagent. The 96-well plate was then incubated for 40 min at room temperature, followed by the addition of 50 µl of ADP-Glo Max Detection Reagent. After 40 min, luminescence was detected using a FlexStation 3.0 system (Molecular Devices). Dose-response curves and n/Km/Vmax values were calculated using GraphPad Prism Software (GraphPad Software Inc.).
Transformation and overexpression of ATP13A2 in yeast - The S. cerevisiae W303-1B/Gal4-ΔPep4 strain (leu2-3, his3-11,15, trp1-1::TRP1-GAL10-GAL4, ura3-1, ade2-1, canr, cir^+, ΔPep4 MAT; a kind gift from Rosa Lopez Marques) was transformed according to the lithium acetate/single-stranded carrier DNA/polyethylene glycol method [Gietz, R. D. & Woods, R. A. Methods Enzymol 350, 87-96 (2002)], with the pYeDP60 vector containing a yeast codon optimized version of human ATP13A2 variant 2 (WT or the catalytically dead E343A mutant) followed by a thrombin cleavage site and a C-terminal BAD tag [Azouaoui, H. et al. PLoS One 9, e112176, (2014); Jidenko, M. et al.Protein Expr Purif 48, 32-42, (2006)]. The transformation mixture was grown for 48 h at 30°C on minimal medium agar plates lacking uracil (0.54% yeast nitrogen base without amino acids, 0.12% yeast drop-out mix without Ura, 2% glucose, and 2% agar) to select yeast colonies that acquired the plasmid. These colonies were then cultured in 20 ml of MM-Ura medium (0.67% yeast nitrogen base without amino acids, 0.19% yeast drop-out mix without Ura, and 2% glucose) and grown for 24 h at 28°C and 200 rpm. The MM-Ura yeast pre-culture was used to inoculate 100 ml of MM-Ura medium to a final OD600 of 0.2, followed by a 12 h incubation period (28°C and 200 rpm). The second pre-culture was inoculated into 4.5 l of YPGE2X medium (2% yeast extract, 2% bactopeptone, 1% glucose, and 2.7% ethanol) to a final OD600 of 0.05 and grown for 36 h (28°C and 175 rpm). ATP13A2-BAD expression was induced with 2% galactose, followed by a second galactose induction 12 h later. After another 12 h, the pellet was collected (1,000 x g; 10 min; 4°C).
Yeast membrane preparation - Yeast cells were broken with glass beads using a BeadBeater (BioSpec products). The lysis buffer contained 50 mM Tris-HCI (pH 7.5), 1 mM EDTA, 0.6 M sorbitol, 1 mM phenylmethylsulfonyl fluoride and SigmaFast protease inhibitor. To remove cell debris and nuclei, the crude extract was centrifuged at 2,000 x g for 20 min (4°C). The supernatant (S1) was centrifuged at 20,000 x g for 20 min (4°C) to pellet the heavy membrane fraction (P2), and the resulting supernatant (S2) was further centrifuged at 200,000 x g for 1 h (4°C). The resulting pellet (i.e., the light membrane fraction, P3) was resuspended in 20 mM HEPES-Tris (pH 7.4), 0.3 M sucrose and 0.1 mM CaCl2. The total protein concentration was determined using a Bradford assay (B6916, Sigma-Aldrich).
ATP13A2-BAD purification - The method used to purify ATP13A2 was based on the purification of overexpressed Drs2p from yeast membranes. Yeast P3 membranes were diluted to 5 mg of total protein/ml in SSR buffer (50 mM MOPS-KOH (pH 7), 100 mM KCI, 20% glycerol, 5 mM MgCl2, 1 mM DTT, and SigmaFast protease inhibitor cocktail) and solubilized using DDM, with a detergent to protein ratio of 1:1.

[3] = system: SH-SY5Y cells; assay: MUH cytotoxicity assay; assay type: cell-based, human; details: increasing concentrations, 24 h
Experimental: MUH cytotoxicity assay - SH-SY5Y cells were seeded in 96-well plates (1 X 10^4 cells per well) and allowed to adhere overnight. The cells were subsequently treated with increasing doses of the indicated compounds for 24-48 h. Following exposure, the cells were washed with PBS and stained with 300 µg/ml MUH (prepared in DMSO, dissolved in PBS) for 30 min at 37°C.

| ATPase activity of ATP13A2 WT, screen for candidate substrates [1] | Compound | ATPase activity of ATP13A2, dose-response [1] | other results |
| --- | --- | --- | --- |
| had no effect | [Ca+2].[Cl-].[Cl-] [CaCl2] |  |  |
| did not increase ATP13A2 activity | [Cl][Fe]([Cl])[Cl] [FeCl3] |  |  |
| did not increase ATP13A2 activity | [Cl][Mn][Cl] [MnCl2] |  |  |
|  | CC(=O)NCCCNCCCCNCCCN [N1-acetylspermine, N^1-acetylspermine trihydrochloride] | stimulate ATPase activity in a concentration-dependent manner | Vmax ± SEM ([1]; Microsomal ATP13A2): 98 ± 5 nmol ADP/mg/min |
|  | CCCCCCCC/C=C\CCCCCCCC(=O)OC[C@H](COP(=O)(O)O)OC(=O)CCCCCCC/C=C\CCCCCCCC [PA, 1,2-dioleoyl-sn-glycero-3-phosphate (sodium salt)] |  | lipid concentration of maximal effect on ATPase activity [2]: 125 µM; ATP13A2 activity, effect of regulatory lipids [2]: strongly stimulated |
|  | CCCCCCCC/C=C\CCCCCCCC(=O)OC[C@H](COP(=O)(O)O[C@@H]1[C@H](O)[C@H](OP(=O)(O)O)[C@@H](O)[C@H](OP(=O)(O)O)[C@H]1O)OC(=O)CCCCCCC/C=C\CCCCCCCC [PI(3,5)P2, 1,2-dioleoyl-sn-glycero-3-phospho-(1'-myo-inositol-3',5'-bisphosphate) (ammonium salt)] |  | lipid concentration of maximal effect on ATPase activity [2]: 125 µM; ATP13A2 activity, effect of regulatory lipids [2]: strongly stimulated |
| did not increase ATP13A2 activity | [Cl-].[Cl-].[Zn+2] [ZnCl2] |  |  |
|  | N=C(N)NCCCCN.O=S(=O)(O)O [agmatine, agmatine sulfate salt] | did not induce ATP13A2 activity |  |
|  | NCCCCCN [cadaverine] | did not induce ATP13A2 activity |  |
|  | Cl.NCCc1ccc(O)c(O)c1 [dopamine, dopamine hydrochloride] | did not induce ATP13A2 activity |  |
|  | NCCc1c[nH]cn1 [histamine] | did not induce ATP13A2 activity |  |
|  | [Na+].[Na+].[Na+].[O]=[V]([O-])([O-])[O-] [orthovanadate, sodium orthovanadate] |  | SPM-induced ATPase activity, inhibition ([2]; 1 mM SPM, 0.25 mM orthovanadate, 125 µM PA/PI(3,5)P2): blocked |
|  | Cl.Cl.NCCCCN [putrescine, putrescine dihydrochloride] | did not induce ATP13A2 activity | viability of control cells [3]: not cytotoxic |
